Source: patent US7629315B2, “Compositions for blocking the inhibitory effect of human CRP on human leptin” (University of Pittsburgh of the Commonwealth System of …, priority 2005, dated 2009)
Entries after “also recorded” stand apart in the source; their conditions may differ. Read-outs that look alike come from different tables or passages of the source.

Columns and labels:
human leptin [1] = target: T1, human leptin (Homo sapiens, UniProt P41159); test: IC50 for human CRP against human leptin (125I-leptin binding to OBR-expressing HEK293 cells); settings: in the presence of about 2 ng/ml human leptin
T1 sequence (P41159 22-167): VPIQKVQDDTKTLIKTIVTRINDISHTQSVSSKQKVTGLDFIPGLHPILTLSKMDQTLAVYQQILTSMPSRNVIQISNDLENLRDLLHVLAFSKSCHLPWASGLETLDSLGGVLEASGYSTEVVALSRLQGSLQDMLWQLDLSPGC
Protocol: 4. Measurement of IC50 for human CRP against human leptin: Human leptin was iodinated with Na^125I using the lodogen method. Briefly, 15 μg of human leptin in 100 mM Phosphate buffer pH 7.5 were incubated with 1 mCi of carrier-free Na^125I (2200 Ci/mmol) in a glass tube containing 50 μg Iodogen. After 10 minute incubation at room temperature, the reaction was stopped with 100 μl 0.1% trifluoroacetic acid (TFA). The reaction mixture was immediately purified by reverse-phase HPLC. The separation employed a 5 minute isocratic step at 20% eluant B in A, followed by two consecutive 30 minute linear gradients from 20 to 50%, then from 50 to 60% eluant B in A (where eluant A is water containing 0.1% TFA and eluant B is acetonitrile containing 0.1% TFA) at a flow rate of 1.5 ml/min. The ^125I-labeled leptin (˜2 ng/ml) was pre-incubated with various concentrations of human CRP in 1 ml of μ-MEM for 30 minute before added to the OBR-expressing HEK293 cells. The incubation would last for 3 hours at 4° C. before the media was aspirated and the cells were dissolved in 0.1N NaOH for scintillation counting.
To examine if human CRP interferes with the binding of human leptin to its receptors, we used a HEK293 cell line stably transfected with the long-form human leptin receptor, OB-Rb. The characterization of this cell line has been reported in earlier studies. M. Friedman-Einat et al., 2003, Regul. Pept. […]

mouse leptin = mouse leptin (Mus musculus, UniProt P41160); test: IC50 for human CRP against mouse leptin (leptin binding to OB-Rb HEK293 cells); settings: in the presence of about 2 ng/ml mouse leptin
mouse leptin, sequence (P41160 22-167): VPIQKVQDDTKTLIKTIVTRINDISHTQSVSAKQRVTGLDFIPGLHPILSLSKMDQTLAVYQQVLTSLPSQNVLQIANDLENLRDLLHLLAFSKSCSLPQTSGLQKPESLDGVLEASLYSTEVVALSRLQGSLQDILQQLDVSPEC

[2] = test system: leptin-induced tyrosine phosphorylation of STAT3; test: Leptin-induced STAT3 tyrosine phosphorylation in HEK293 cells expressing OB-Rb (western blot), human leptin; format: cell-based; settings: for effect on leptin-induced tyrosine phosphorylation of STAT3: human leptin 2 nM, protein pre-incubated with leptin, HEK293 OB-Rb cells
Protocol: (§1) 2. Signaling Studies: A HEK293 cell line stably expressing the human long-form receptor, OB-Rb (M. Friedman-Einat et al., 2003, Regul. Pept. 111, 77) was serum starved for 2-h before addition of leptin and CRP. Leptin (SEQ ID NO:4), in the presence or absence of C-reactive proteins, was pre-incubated in μ-MEM for 30 minutes at 37° C. before applied to the cells. After a 30-incubation with leptin (SEQ ID NO:4), the cells were harvested in a previously described protein lysis buffer. A. Z. Zhao et al., 1997, Proc. Natl. Acad. Sci. U.S.A. 94, 322. The protein extract was subjected to a western blot assay with an anti-phospho-STAT3 specific antibody (Cell Signaling, Beverly, Mass.). For studies involving the primary hypothalamic neurons, the rat hypothalamus was surgically isolated right after euthanasia, and immediately placed in the DMEM for incubation with leptin in the presence or absence of CRP.
(§2) To determine if the interaction between CRP and leptin influences cellular actions of leptin, we assessed the ability of leptin to stimulate tyrosine phosphorylation of STAT3 and PI3-kinase activity in the presence of CRP in vitro.

[3] = test system: mouse leptin-induced STAT3 activation; test: Leptin-induced STAT3 tyrosine phosphorylation in HEK293 cells expressing OB-Rb, mouse leptin; format: cell-based; settings: murine leptin 2 nM
Protocol: as §1, §2

[4] = test system: leptin signaling in rat primary hypothalamic neurons; test: Leptin signaling (phospho-STAT3 and PI3-kinase assays) in rat primary hypothalamic neurons; format: cell-based; settings: human leptin, rat primary hypothalamic ex-plants
Protocol: as §1
Previous studies have reported a requirement of both JAK-STAT and PI3-kinase pathways in mediating leptin signaling within the hypothalamus. C. Vaisse et al., 1996, Nat. Genet. 14, 95; A. Z. Zhao et al., 2002, Nat. Neurosci. 5, 727; K. D. Niswender et al., 2001, Nature 413, 794. The effects of human CRP on leptin signaling in rat primary hypothalamic ex-plants were also tested (FIG. 4D).

[5] = test system: human IL6-stimulated tyrosine phosphorylation of STAT3; test: IL6-stimulated STAT3 phosphorylation in human primary hepatocytes (specificity control); format: cell-based
[6] = test system: insulin-stimulated PI3-kinase; test: Insulin-stimulated PI3-kinase activity in differentiated 3T3-L1 adipocytes (specificity control); format: cell-based
ob/ob mice = test: Infusion of human CRP and/or human leptin by osmotic pumps into ob/ob mice; format: in vivo, mouse; settings: for body weight / food-intake: human CRP alone, without co-infusion of leptin; for effect on leptin-regulated body weight / effect on leptin-regulated food-intake: 6 days
Protocol: 3(a). In vivo assessment of CRP functions: The micro-osmotic pumps (#1007D, DURECT, Cupertino, Calif.) were subcutaneously imbedded in the ob/ob or wild-type mice according to the instructions of the manufacturer. The osmotic pumps were pre-filled with saline, CRP, leptin or leptin plus CRP. Food-intake (24-h), body weight, and body temperature were monitored daily post-surgery. Blood glucose concentrations were measured from the tail-vein blood samples right before and at the end of infusion with a Precision Plus glucose meter (Medisense, Abbot Park, Ill.).
(§3) 3(b) Assessment of serum leptin insulin, and CRP: Human- and mouse-leptin concentrations were measured with the ELISA kit from CHEMICON (Temecular, Calif.) and R&D Systems (Minneapolis, Minn.), respectively, according to the instructions of the manufacturer. Serum mouse insulin concentrations were determined with an ELISA assay (LINCO Research, St. Charles, Mo.). Human CRP concentrations were also evaluated with an ELISA kit (Alpha Diagnostics International, San Antonio, Tex.).
3(c) Measurement of serum- and tissue-triglycerides: Serum- and tissue-triglycerides were determined with the protocols described in J. N. Huan et al., 2003, J. Biol. Chem. 278, 45638. […]

[7] = Serum levels of infused human CRP and human leptin in ob/ob mice (ELISA); format: in vivo, mouse
Protocol: as §3

human leptin [8] = target: T1, human leptin; test: Immunoprecipitation of human CRP with human leptin; format: binding; settings: leptin/CRP mixture and human serum
Protocol: Direct binding of […] and leptin in an immunoprecipitation assay was determined. Rat CRP was purified from fresh rat serum to >95% employing a previously established affinity-purification protocol. J. Tseng et al., 1988, Mol. Immunol. 25, 679. This purity is very similar to the human CRP preparation obtained from a commercial source (CHEMICON International). The purified human- and rat-CRP proteins were pre-mixed with recombinant human and mouse leptin, respectively, before addition of specific antibodies against human- and mouse-leptin. The concentrations of CRP and leptin in the precipitation reaction were all within the physiological ranges (M. B. Schulze et al., 2004, Diabetes Care 27, 889; T. Kazumi et al., 2003, Metabolism 52, 1113).
In parallel experiments, recombinant leptin was also pre-mixed with human- or rat serum to allow for potential direct interactions prior to immunoprecipitation. The precipitation pellets obtained were subjected to western blot assays with specific anti-CRP antibodies. […] Because of the similarities between rat CRP and human CRP in the binding to leptin and of our main interest in the relevance to human obesity, focus was placed on potential functional effects of human CRP in the subsequent experiments.

[9] = human CRP high dosage 40 μg/day co-infused with human leptin
[10] = human CRP high dosage co-infused with leptin
[11] = human CRP low dosage 10 μg/day co-infused with human leptin

human CRP: human C-reactive protein preparation obtained from a commercial source (CHEMICON International)
IC50 of CRP for reduction of 125I-labeled human leptin binding to its receptors (human leptin [1]): approximately 80 ng/ml
IC50 of human CRP towards mouse leptin (mouse leptin): greater than 64 μg/ml
calcium dependence of attenuation of leptin signaling ([2]; excess EGTA added to the incubation medium): requires the presence of calcium ions
effect on leptin-induced tyrosine phosphorylation of STAT3 [2]: attenuate the tyrosine-phosphorylation of STAT3; also recorded: Attenuating effects; also recorded: caused the reduction of leptin-stimulated STAT3 activation
effect on leptin-induced tyrosine phosphorylation of STAT3 ([2]; listed as Human CRP): suppressed the activation of STAT3 by leptin
effect on mouse leptin-induced STAT3 phosphorylation [3]: less efficient in blocking the signaling capacity of mouse leptin; also recorded: unable to block leptin-induced STAT3 activation
effect on leptin signaling (phospho-STAT3 and PI3-kinase) [4]: inhibited leptin signaling in primary hypothalamic neurons
effect on IL6-stimulated tyrosine phosphorylation of STAT3 [5]: did not suppress IL-6 induced activation of STAT3
effect on IL6-stimulated tyrosine phosphorylation of STAT3 ([5]; listed as Human CRP): does not affect human IL6-stimulated tyrosine phosphorylation of STAT3
effect on insulin-stimulated PI3-kinase activity [6]: did not suppress; also recorded: does not affect insulin-stimulated PI3-kinase activity
leptin-stimulated STAT3 activation in hypothalamic tissues (ob/ob mice; high dose CRP co-infused with leptin): blocked by co-infusion of CRP with leptin
body weight (ob/ob mice): did not affect food-intake or body weight
food-intake (ob/ob mice): did not affect food-intake or body weight
body weight (ob/ob mice; listed as CRP): does not influence food-intake and body-weight
food-intake (ob/ob mice; listed as CRP): does not influence food-intake and body-weight
effect on leptin-regulated body weight (ob/ob mice; [9]): completely blocked the actions of leptin to restrain appetite and induce weight loss; also recorded: completely blocked the effects of leptin
effect on leptin-regulated food-intake (ob/ob mice; [9]): completely blocked the actions of leptin to restrain appetite and induce weight loss; also recorded: completely blocked the effects of leptin
effect on leptin-regulated rectal temperature (ob/ob mice; human CRP high dosage co-infused with human leptin): attenuation of leptin-induced energy expenditure; also recorded: completely blocked the effects of leptin on rectal temperature
effect on leptin-induced change in blood glucose (ob/ob mice; [10]): blocked these effects of leptin; also recorded: completely blocked leptin-induced beneficial effects
effect on leptin-induced change in hepatic triglycerides (ob/ob mice; [10]): blocked these effects of leptin; also recorded: completely blocked leptin-induced beneficial effects
effect on leptin-induced change in serum insulin (ob/ob mice; [10]): blocked these effects of leptin; also recorded: completely blocked leptin-induced beneficial effects
effect on leptin-induced change in serum triglycerides (ob/ob mice; [10]): blocked these effects of leptin; also recorded: completely blocked leptin-induced beneficial effects
effect on leptin-regulated body weight (ob/ob mice; [11]): only partially attenuated these effects of human leptin; also recorded: only partially blocked leptin's effect
effect on leptin-regulated food-intake (ob/ob mice; [11]): only partially attenuated these effects of human leptin; also recorded: only partially blocked leptin's effect
serum concentration of human CRP ([7]; end of infusion, human CRP 48 μg/day/mouse): 850 ± 100 ng/mL
serum concentrations of human CRP attained ([7]; human CRP infused at 10 or 40 μg/day): well within the physiological range observed in human plasma
direct binding to human leptin (immunoprecipitation with anti human-leptin, anti-CRP western blot) (human leptin [8]): could pull down human CRP
